Measured values taken from patent US6262064A, “Octahydrobenzo[f]quinoline-based receptor agonists and antagonists” (priority 1999, dated 2001).
Entries after “also recorded” stand apart in the source; their conditions may differ. Where two headings read alike, the source gives them in different places.

Key:
D2 receptor [1] = biological target: T1, D2 receptor (Sus scrofa, UniProt F1SM69); assay: D2:D4 comparative binding assay, D2 (pig anterior pituitary)
T1 construct: pig anterior pituitary tissue; from tissue; host or cells: pig anterior pituitary
Protocol: (§1) To evaluate D2 versus D4 receptor selectivity, comparative binding assays were performed to compare the binding affinities of compositions of this invention for cloned D2 and D4 receptors.
(§2) The D2 assay was prepared from pig anterior pituitary tissue as described in Seeman et al., Molecular Pharmacology, 28:391 (1985). The D4 assay contained membranes prepared from COS-7 cells transfected with a 3.9 kb cDNA-gene fusion construct as described in H. H. M. Vantol, Nature, 350:610 (1991).
(§3) Binding assays were done using the methods described in by Seeman and Vantol. [^3 H]-spiperone (New England Nuclear, Boston, Mass.). The compositions were tested varying concentrations.
(§4) After addition of all components, the samples were incubated for 15 minutes at 37° C., terminated with 50 mM Tris-HCl (pH 7.4 at 20° C.) and collected on glass-fiber filters on a Brandel cell harvester. Radioactivity retained on the filters was counted on a Beckman LS 1701 scintillation counter and data were analyzed by non-linear least squares regression methods.

5HT1 serotonin receptor = assay: Serotonin (5HT1) binding assay
Protocol: In these assays, the binding reaction was initiated by the addition of varying concentrations of the potential binding composition and a radioligand to an appropriate tissue. The assay was then incubated to allow binding. Binding was then terminated by dilution of the assay with a cold buffer, followed by rapid vacuum filtration onto Whatman GI/C filters that were presoaked in 0.1% polyethylene imine for at least 3 hours. Radioactivity trapped onto the filters was determined and compared to control values in order to ascertain any interactions of test compounds with the binding sites.
Incubation was conducted in 50 mM TRIS-HCl (pH 7.4) at 45 minutes for 37° C. The radioligand used was [^3 H]Hydroxytryptamine binoxalate (15-30 Ci/mmol). The final ligand concentration was 3.0 nM.

[2] = system: non-habituated male Swiss-Webster mice; assay: Locomotor dose-effect test; type: in vivo
Protocol: Compounds of this invention were tested to evaluate any depressant effect upon locomotor activity on non-habituated and cocaine-influenced mice. Locomotor activity was measured in photocell cages. A panel of infrared beams was located in the horizontal direction along all 4 sides of each activity cage. Horizontal photocell beam interruptions were recorded by a computer in 10 minute intervals.
Non-habituated male Swiss-Webster served as subjects in this experiment. The mice were injected via the intraperitoneal (IP) route with a methycellulose vehicle or a test compound, comprising trans-9 or cis-9, and placed singly in cages for 20 minutes. After this 20 minute period, mice were injected with saline IP, placed in individual photocell cages and testing for effects upon locomotor activity was begun. Eight mice were tested at each dose level. Experimental sessions were 60 minutes in duration with horizontal locomotor activity recorded in 10 minute intervals. Within each 10 minute interval, the data from all subjects are averaged.
The results of these tests were provided in FIGS. 1a, 1b, 2a and 2b, as well as in Table XI. […] Data were analyzed by a one-way ANOVA computed across doses using a long10 transformation of the horizontal activity counts. Comparisons between vehicle and each dose of the compounds tested were made by a priori contrasts. Doses of the compounds tested, which produced a statistically significant (p<0.05) decrease in locomotor activity relative to vehicle control, are denoted with an asterisk. […] The horizontal activity counts were regressed against the log10 dose of the test compound.

[3] = system: alpha1-adrenergic receptor
Protocol: In these assays, the binding reaction was initiated by the addition of varying concentrations of the potential binding composition and a radioligand to an appropriate tissue. The assay was then incubated to allow binding. Binding was then terminated by dilution of the assay with a cold buffer, followed by rapid vacuum filtration onto Whatman GI/C filters that were presoaked in 0.1% polyethylene imine for at least 3 hours. Radioactivity trapped onto the filters was determined and compared to control values in order to ascertain any interactions of test compounds with the binding sites. Binding affinity analyses were performed by Novascreen, Division of the Adheron Corporation, Hanover, Md.
Incubation was conducted in 50 mM TRIS-HCl (pH 7.7) at 25° C. for 60 minutes. […] The final ligand concentration was 0.5 nm.

[4] = system: male Sprague-Dawley albino rats; assay: Stereotypy evaluation for dopaminergic activity; type: in vivo; conditions: IP
Protocol: Young, adult, male Sprague-Dawley (Charles River) albino rats (200-250 g) served as subjects in this experiment. The rats were injected IP with each dose of (±)-trans-9 or (±)-cis-9. Six rats were tested at each dose. Experimental sessions were 60 minutes in duration. The tests were performed and rated in accordance with the method described in Campbell et al., Psychopharmacology, 88:158 (1986). Each rat was rated with a score of 0 to 3, where 0 represents no sterotypy.

D2 receptor [5] = biological target: T2, D2 receptor (Rattus norvegicus, UniProt P61169); assay: D2 receptor agonist evaluation (membrane binding with and without Gpp(NH)p)
T2 construct: expressed in transfected cells
Protocol: (§5) To determine the D2, D3 or D4 receptor selectivity, competition binding assays were performed using membranes from fibroblast cell lines transfected with D2444 (rat), D3 (human) or D4 (rat) receptors. All cell lines were maintained in Dulbecco's modified Eagle's media (DMEM) supplemented with 10 % fetal bovine serum at 37° C. with 5% CO2. Transfected cells were maintained in DMEM containing 300 μg/mL of the antibiotic G418 (Gibco).
To determine whether or not compounds of this invention were D2 receptor agonists, a membrane binding assay, utilizing the D2 cell line described in Example 26, was performed in the presence and absence of the non-hydrolyzable guanine nucleotide (GTP analogue) Gpp(NH)p.

D1 dopamine receptor = biological target: T3, D1 dopamine receptor (Rattus norvegicus, UniProt P18901); assay: Dopamine D1 binding assay ([3H]SCH 23390); conditions: Table III; rat striatal membranes; read-out: D1 receptor binding affinity Ki
T3 construct: rat striatal membranes; from tissue; host or cells: rat striatum membranes
Protocol: The final radioligand concentration was 0.5 nM.

D3 (human) receptor = biological target: T4, D3 (human) receptor (Homo sapiens, UniProt P35462); assay: D2:D3:D4 competition binding assay, D3 ([3H]-spiperone); conditions: in words, Example 26
T4 construct: expressed in transfected cells
Protocol: as §5
Nuclei were removed by centrifugation for five minutes at 600 g at 4° C., membranes were pelleted for 25 minutes at 50,000 g. Membrane protein was resuspended in homogenization buffer (0.32M sucrose, 0.0025M Tris, pH 6.9 at 20° C.) and incubated at 37° C. for 15 minutes. Membrane protein was pelleted, resuspended in water and stored at -70° C.
The compositions were tested in varying concentrations between 1 nM and 100 μM. Non-specific binding was determined using 1 μM eticlopride.
After addition of all components, the samples were incubated for 15 minutes at 37° C., terminated with 50 mM Tris-HCl (pH 7.4 at 4° C.) and collected on glass-fiber filters on a Brandel cell harvester. […] Each composition was evaluated in duplicate experiments.

D4 receptor = biological target: T5, D4 receptor (Homo sapiens, UniProt P21917, DEL265-296); assay: D2:D4 comparative binding assay, D4 (COS-7 cells)
T5 construct: expressed in transfected cells; host or cells: COS-7 cells
Protocol: as §1, §2, §3, §4

[6] = biological target: alpha2-adrenergic receptor; assay: Alpha2-adrenergic (non-selective) binding assay ([3H]RX 781094); design: species or system rat
D2 dopamine receptor = biological target: T6, D2 dopamine receptor (Rattus norvegicus, UniProt P61169); assay: Dopamine D2 binding assay ([3H]Sulpiride)
T6 construct: rat striatal membranes; from tissue; host or cells: rat striatum membranes
Protocol: The final ligand concentration was 0.5 nM.

T2 sequence (P61169 whole entry): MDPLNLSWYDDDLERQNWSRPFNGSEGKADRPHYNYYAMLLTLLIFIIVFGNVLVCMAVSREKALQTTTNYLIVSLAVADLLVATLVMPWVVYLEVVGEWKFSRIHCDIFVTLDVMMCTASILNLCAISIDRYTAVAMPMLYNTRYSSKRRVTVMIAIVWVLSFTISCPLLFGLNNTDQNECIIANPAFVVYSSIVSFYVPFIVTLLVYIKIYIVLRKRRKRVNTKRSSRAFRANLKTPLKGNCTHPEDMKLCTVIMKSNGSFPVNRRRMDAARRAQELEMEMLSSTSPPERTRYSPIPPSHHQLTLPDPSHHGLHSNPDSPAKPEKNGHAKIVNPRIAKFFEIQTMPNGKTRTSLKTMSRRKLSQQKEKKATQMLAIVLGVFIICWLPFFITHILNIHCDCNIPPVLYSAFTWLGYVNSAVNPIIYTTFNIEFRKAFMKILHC
T6 sequence (P61169 whole entry): as above
T1 sequence (F1SM69 1-443): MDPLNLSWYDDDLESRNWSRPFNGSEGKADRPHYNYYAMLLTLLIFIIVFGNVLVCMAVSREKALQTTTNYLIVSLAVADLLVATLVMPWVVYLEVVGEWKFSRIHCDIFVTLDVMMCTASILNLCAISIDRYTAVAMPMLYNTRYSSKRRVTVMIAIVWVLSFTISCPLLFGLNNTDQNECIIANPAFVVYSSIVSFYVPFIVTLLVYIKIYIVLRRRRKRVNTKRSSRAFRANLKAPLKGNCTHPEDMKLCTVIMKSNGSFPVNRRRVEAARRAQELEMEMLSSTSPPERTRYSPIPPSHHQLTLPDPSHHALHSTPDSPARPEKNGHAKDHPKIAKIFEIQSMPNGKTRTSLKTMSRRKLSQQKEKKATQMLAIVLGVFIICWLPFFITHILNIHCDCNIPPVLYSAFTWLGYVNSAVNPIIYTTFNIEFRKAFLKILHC
T3 sequence (P18901 whole entry): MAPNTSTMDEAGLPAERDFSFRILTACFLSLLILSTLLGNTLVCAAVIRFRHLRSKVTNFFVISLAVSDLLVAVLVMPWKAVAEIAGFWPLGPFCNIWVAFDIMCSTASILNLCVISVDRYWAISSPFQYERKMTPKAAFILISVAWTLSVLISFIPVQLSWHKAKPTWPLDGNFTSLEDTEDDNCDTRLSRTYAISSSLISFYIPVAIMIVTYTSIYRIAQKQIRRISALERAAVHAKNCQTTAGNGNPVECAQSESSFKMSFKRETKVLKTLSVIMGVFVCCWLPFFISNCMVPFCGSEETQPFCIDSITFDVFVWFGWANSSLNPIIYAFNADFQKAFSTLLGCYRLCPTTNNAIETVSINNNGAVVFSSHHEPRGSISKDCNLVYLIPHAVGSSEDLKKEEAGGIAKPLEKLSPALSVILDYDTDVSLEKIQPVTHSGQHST
T4 sequence (P35462 whole entry): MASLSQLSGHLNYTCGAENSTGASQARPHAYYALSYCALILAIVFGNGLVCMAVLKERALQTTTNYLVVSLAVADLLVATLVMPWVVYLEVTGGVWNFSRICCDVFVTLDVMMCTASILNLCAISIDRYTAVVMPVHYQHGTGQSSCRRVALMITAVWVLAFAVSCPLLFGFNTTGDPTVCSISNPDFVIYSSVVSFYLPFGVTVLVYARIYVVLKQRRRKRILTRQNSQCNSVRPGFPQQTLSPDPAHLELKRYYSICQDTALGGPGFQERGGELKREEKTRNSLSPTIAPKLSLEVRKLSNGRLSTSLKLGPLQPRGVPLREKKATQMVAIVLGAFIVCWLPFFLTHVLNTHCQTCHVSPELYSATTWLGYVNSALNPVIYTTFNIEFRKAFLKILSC
T5 sequence (P21917 other isoform, or with tags, fused parts or gaps DEL265-296): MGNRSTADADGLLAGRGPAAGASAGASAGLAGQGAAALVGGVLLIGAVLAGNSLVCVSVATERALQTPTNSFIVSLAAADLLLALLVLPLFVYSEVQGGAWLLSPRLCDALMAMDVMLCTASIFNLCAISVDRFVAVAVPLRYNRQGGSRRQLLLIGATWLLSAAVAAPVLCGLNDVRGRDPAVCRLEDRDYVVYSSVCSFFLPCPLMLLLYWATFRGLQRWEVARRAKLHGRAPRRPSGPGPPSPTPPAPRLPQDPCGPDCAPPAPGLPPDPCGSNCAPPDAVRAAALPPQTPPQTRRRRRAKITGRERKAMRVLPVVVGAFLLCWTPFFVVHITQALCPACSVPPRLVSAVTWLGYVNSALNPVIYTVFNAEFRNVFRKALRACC

For `Oc1ccc2c(c1O)CC[C@@H]1[C@@H]2CCCN1CCc1ccccc1` (relative stereo) [trans-9, trans-7,8-dihydroxy-4-phenethyl-1,2,3,4,4a,-5,6,10b-octahydrobenzo[f]quinoline], the Ki (D2 receptor [1]) was 6.9 nM, the “5HT1 serotonin receptor binding affinity” value (5HT1 serotonin receptor; in words) was “high binding affinity for the 5HT1 serotonin receptor” and the Ki (5HT1 serotonin receptor; read-out: 5-HT1 receptor binding affinity Ki, Table III, rat cortical membranes) was 150 nM. The “decrease in locomotor activity, overall assessment” value ([2]; IP, in words) was “strong agonist in inducing a decrease in locomotor activity in mice”, the “suppression of locomotor activity” value ([2]; IP, in words) was “marked suppression of locomotor activity when initially tested at 10 mg/kg; also recorded: Marked suppression was still evident at 0.1 mg/kg” and the ED50 ([2]; Mus musculus, read-out: ED50 (dose which produced 50% maximal depressant activity), IP, horizontal locomotor activity) was 0.038 mg/kg. For the same compound, the “α1 receptor binding affinity” value ([3]; in words) was “high binding affinities for the α1 receptor”, the Ki ([3]; read-out: α1 receptor binding affinity Ki, Table III, rat forebrain membranes) was 80 nM and the stereotypy score ([4]; 0.0001 mg/kg) was 6.5 ± 0.4. For the same compound, the stereotypy score ([4]; 0.001 mg/kg) was 10.0 ± 0.9, the stereotypy score ([4]; 0.003 mg/kg) was 8.2 ± 0.8 and the stereotypy score ([4]; 0.01 mg/kg) was 7.2 ± 0.6. For the same compound, the stereotypy score ([4]; 0.03 mg/kg) was 6.5 ± 0.5, the stereotypy score ([4]; 0.1 mg/kg) was 6.0 ± 0.7 and the stereotypy score ([4]; 0.3 mg/kg) was 1.7 ± 0.5. The stereotypy score ([4]; 1.0 mg/kg) was 0.3 ± 0.2, the stereotypy score ([4]; 3.0 mg/kg) was 0.2 ± 0.2 and the stereotypy score ([4]; 10.0 mg/kg) was 0.0. The “induction of stereotypy, dopamine agonism” value ([4]; in words) was “appears to be a strong agonist as it induced stereotypy in rats”, the “Ratio of +:- Gpp(NH)p” value (D2 receptor [5]; Table XV) was 8.82 and the Ki (D2 receptor [5]; Table XV, with Gpp(NH)p, read-out: D2 receptor binding Ki with Gpp(NH)p) was 924 ± 1840 nM. For the same compound, the Ki (D2 receptor [5]; Table XV, without Gpp(NH)p, read-out: D2 receptor binding Ki without Gpp(NH)p) was 105 ± 29 nM, the D2 agonist/antagonist assessment (D2 receptor [5]; in words) was “appear to be agonists” and the “effect of GTP on D2 receptor binding” value (D2 receptor [5]; in words) was “D2 receptor binding was enhanced by the addition of GTP”. The Ki (D1 dopamine receptor) was 3600 nM, the “selectivity for the D3 receptor” value (D3 (human) receptor) was “highly selective for the D3 receptor over the D2 or D4 receptors” and the Ki (D4 receptor) was 2.4 nM. The Ki ([6]; Table III, rat cortical membranes, read-out: α2 receptor binding affinity Ki) was 22 nM, the “α2 receptor binding affinity” value ([6]; in words) was “high binding affinities for the α2 receptor” and the Ki (D2 dopamine receptor) was 2.2 nM. The “dopamine receptor binding affinity” value (D2 dopamine receptor; in words) was “good dopamine receptor binding affinities” and the “selectivity for the D2 over the D1 dopamine receptor” value (D2 dopamine receptor; in words) was “highly selective for the D2 dopamine receptor over the D1 dopamine receptor”.
